These results are taken from US20130253022A1 (FOX CHASE CHEMICAL DIVERSITY CENTER, INC., priority 2010, published 2013).

For test [1], the system named is 6-Hz psychomotor seizure. The test can be described thus: 6 Hz psychomotor seizure test, mouse. As to conditions: ip. It is filed as in vivo, mice. As for the experimental part:
Methods to measure anticonvulsant activity: All tests were conducted by the Anticonvulsant Screening Program (ASP) of the National Institute of Neurological Disease and Stroke at the National Institutes of Health. The 6 Hz Seizure Test: Compounds were further tested in the 6-Hz psychomotor seizure model. (Barton et al. Pharmacological characterization of the 6 Hz psychomotor seizure model of partial epilepsy. Epilepsy Res. 2001, 47, 217-227). This model is used to detect […] that may be useful for the treatment of therapy-resistant partial seizures. For this test, an alternative electrical stimulation paradigm is used with a low frequency (6 Hz), long duration (3 seconds) corneal stimulation. The seizure evoked by this low frequency stimulation is characterized by immobility, forelimb clonus, Straub tail and facial automatisms. Mice are tested from 15 min to 4 hours following an intraperitoneal dose of 100 mg/kg. Abolition of the clonic seizures indicates the ability of a compound to prevent partial or psychomotor seizures.

Test [2] concerns Hippocampal Cultures. The test can be described thus: Neuroprotection from glutamate excitotoxicity, CFDA (neuronal viability) assay. Format: cell-based. As to conditions: Rattus norvegicus; 30 μM glutamate 5 min, hippocampal cultures, 4 hour test period; read-out: NP from Glutamate CFDA EC50. The text has this:
(§1) Cell cultures: All compounds are screened with dissociated hippocampal cultures derived from embryonic day 18 rats as the primary test system. With this preparation, primary neurons are used to test for toxicity as well as neuroprotection in a highly relevant experimental system to epilepsy. In brief, hippocampal tissue are obtained commercially through Brain Bits (Springfield, Ill.) and cultures prepared as previously described by Brewer (Brewer, G. J. Serum-free B27/neurobasal medium supports differentiated growth of neurons from the striatum, substantia nigra, septum, cerebral cortex, cerebellum and dentate gyms, J. Neurosci. Res. 1995, 42, 674-683). The hippocampal neurons are platted at low density (10,000 cell/well) in a 96-well format and maintained in serum-free medium consisting of Neurobasal Medium supplemented with B27 and GlutaMAX (Gibco). Pre-coated poly-L-lysine coated plates are used because of the preferential adherence and survival of hippocampal neurons on this matrix support.
(§2) Potent neuroprotection is the distinguishing characteristic that separates this program's anticonvulsants from all other commercial drugs for epilepsy. The experimental details and the rationale for the implemented assays are essential in differentiating these compounds from that of others. The central objective of all neuroprotective assays was their relevancy to excitotoxicity and oxidative stress related to epilepsy. Both the amount of glutamate and hydrogen peroxide used in the assays, as well as the time of treatment and duration of the experiment, were designed to be relevant to epilepsy. Further, all time parameters employed in these studies were empirically determined to be within the limits of reversible toxic events, yet using amounts of glutamate and hydrogen peroxide that were relevant to the disease. In regard to glutamate toxicity, a critical feature was the duration of treatment of the hippocampal neurons. The rational for using a short 5 min treatment with glutamate was based on the observation of Randall and Thayer (Randall, R. D.; Thayer, S. A. Glutamate-induced calcium transient triggers calcium overload and neurotoxicity in rat hippocampal neurons, J. Neurosci. 1992, 12, 1882-1895). […] The rationale is that this intense burst of glutamate and resulting calcium overload is relevant to seizures and therefore was important data to capture in the screening assay. The amount of glutamate (30 μM) employed in our screening was based on the basal levels of glutamate observed in microdialysis measurements of hippocampus from epileptogenic patients (Cavus et al. Decreased hippocampal volume on MRI is associated with increased extracellular glutamate in epilepsy patients, Epilepsia, 2008, 49, 1358-1366). In regard to hydrogen peroxide, the amount employed (10 μM) was detected in the hippocampus of rats after kainate-induced status epilepticus (Jarrett et. al., Mitochondrial DNA damage and impaired base excision repair during epileptogenesis, Neurobiol. Dis. 2008, 30, 130-138). To produce neural damage and death with these amounts of glutamate and hydrogen peroxide, the cultures were changed to a medium with significant depletion of antioxidant components in the defined medium supplement B-27 just prior to treatment with the compounds. […]

In test [3] the test system is MES-induced seizure spread. The experiment in a line: Maximal electroshock seizure (MES) test, rat. Format: in vivo, rats. As to conditions: po. As for the experimental part:
Seizure-related assays, Maximal electroshock test: The most definitive assay for anti-seizure activity is the maximal electroshock (MES) test (Swinyard, E. A. Laboratory evaluation of antiepileptic drugs: review of laboratory methods, Epilepsia, 1969, 10, 107-119). […] With both rodent assays, the duration of action is of high importance as well as the potency of the response.
Methods to measure anticonvulsant activity: All tests were conducted by the Anticonvulsant Screening Program (ASP) of the National Institute of Neurological Disease and Stroke at the National Institutes of Health.
The Maximal Electroshock Seizure (MES) or Maximal Seizure Pattern Test: The MES is a model for generalized tonic-clonic seizures (Putnam and Merritt. Experimental determination of the anticonvulsant properties of some phenyl derivatives. Science 1937, 85, 113-118). It is highly reproducible with consistent endpoints. The behavioral and electrographic seizures generated in this model are consistent with the human disorder. This model identifies those compounds which prevent seizure spread.
In the MES test, an electrical stimulus of 0.2 s in duration (50 mA in mice and 150 mA in rat at 60 Hz) is delivered via corneal electrodes primed with an electrolyte solution containing an anesthetic agent. Mice are tested at 30 minutes and 4 hours following doses of 30, 100 and 300 mg/kg of test compound. Test compounds are administered intraperitoneally to the mice. Rats are tested at time intervals between 0.25 and 4 hours following a standard oral dose of 30 mg/kg. Abolition of the hindlimb tonic extensor component indicates the test compound's ability to inhibit MES-induced seizure spread.
On the technique in general: Protection in the maximal electroshock model is a classic sign of anticonvulsant action.

The test system of test [4] is Hippocampal Cultures. The experiment in a line: Neuroprotection from hydrogen peroxide (oxidative stress), propidium iodide assay. It is filed as cell-based. The conditions noted are these: Rattus norvegicus; 10 μM hydrogen peroxide, hippocampal cultures, 4 hour test period; read-out: NP from Hydrogen Peroxide PI EC50.
From the text: as §1
as §2, with “compounds. This was performed to obtain a significant and reproducible toxic signal in the hippocampal neurons and because loss of antioxidant control may be a component of epileptogenesis (Waldbaum and Patel, Mitochondria, oxidative stress and temporal lobe epilepsy, Epilepsy Res. 2010 88, 23-45; Wu et al., Mitochondrial DNA mutation-elicited oxidative stress, oxidative damage, and altered gene expression in cultured cells of patients with MERRF syndrome, Mol. Neurobiol. 2010, 41, 256-266). Neuroprotection studies with hydrogen peroxide were conducted with cultures that were between day 12 and day 18. Studies of neuroprotection glutamate were conducted between day 19 and day 22.” for “compounds.”

For test [5], the system named is Hippocampal Cultures. The test can be described thus: Neuroprotection from glutamate excitotoxicity, propidium iodide (cell death) assay. Format: cell-based. The conditions noted are these: Rattus norvegicus; 30 μM glutamate 5 min, hippocampal cultures, 4 hour test period; read-out: NP from Glutamate PI EC50.
From the text: as §1
as §2, with “compounds. This was performed to obtain a significant and reproducible toxic signal in the hippocampal neurons and because loss of antioxidant control may be a component of epileptogenesis (Waldbaum and Patel, Mitochondria, oxidative stress and temporal lobe epilepsy, Epilepsy Res. 2010 88, 23-45; Wu et al., Mitochondrial DNA mutation-elicited oxidative stress, oxidative damage, and altered gene expression in cultured cells of patients with MERRF syndrome, Mol. Neurobiol. 2010, 41, 256-266). Neuroprotection studies with hydrogen peroxide were conducted with cultures that were between day 12 and day 18. Studies of neuroprotection glutamate were conducted between day 19 and day 22.” for “compounds.”

In general, ED50 refers to the midpoint of the dose-response relation. Low values mean an effect at a small dose, high ones a need for a large dose. Broadly, the EC50 is the concentration at which the effect is half-maximal.

As to `NS(=O)(=O)NCC(F)(F)c1ccccc1F` [Example 1, 2,2-Difluoro-2-(2-fluorophenyl)-ethyl-1-sulfamide], the ED50 in test [1] was found to be 18 mg/kg; in test [3], 30 mg/kg. In addition, the EC50 in test [2], in test [4] and in test [5] was 1 nM in each case.

Turning to `NS(=O)(=O)NCC(F)(F)c1ccccc1Cl` [Example 2, 2,2-Difluoro-2-(2-chlorophenyl)-ethyl-1-sulfamide], the ED50 in test [1] is 28 mg/kg; in test [3], 30 mg/kg. Besides, the results for the EC50 in test [2], in test [4] and in test [5] were 10 nM, 0.1 nM and 1 nM, respectively.
